According to the NIST ThermoML archive (doi:10.1007/s10765-011-0989-8):

Details: 101 kPa, Liquid; for viscosity: Capillary tube (Ostwald / Ubbelohde) method; for mass density: Pycnometric method

CO [methanol]
Details	mass density [kg/m3]	viscosity [mPa·s]
293.15 K	791	0.595
298.15 K	786.4	0.552
303.15 K	781.8	0.514
308.15 K	777.2	0.478
313.15 K	771.8	0.449
323.15 K	762.3	0.394
333.15 K	752.4	0.349
